Measured values taken from US20070009495A1, “Method for treating or preventing systemic inflammation in formula-fed infants” (priority 2005, published 2007).

Key:
Type in all cases: in vivo, Sprague-Dawley infant rats
[1] = system: ileum intestinal mucosa; experiment: Intestinal morphology of ileum (H&E stain) in LPS-treated rat pups
Source text: (§1) This example describes the materials and methods necessary to show the effect of LGG on formula-fed neonatal rat pups. In two separate experiments, ten Sprague-Dawley (Taconic, Germantown, N.Y.) infant rats were randomly assigned to two gastrostomy feeding groups with five rats per group. Gastrostomy feeding, using the rat infant “pup-in-the-cup” model, began on day 7 of life of the rat pups. The gastrostomy feeding tubes were constructed from 14-cm sections of polyethylene tubing that were inserted into the stomach of the pups. This is a commonly used model in studies of developmental nutrition when it is important to manipulate nutritional composition in the absence of maternal feedings. The gastrostomy placement was done under isoflurane anesthesia. […]
(§2) During a 2-day acclimation period, the gastrostomy-fed rat pups were fed with rat milk substitute (RMS). […] All of the gastrostomy-fed groups received the same quantity of fat and carbohydrates.
(§3) Lipopolysaccharide (LPS) from Escherichia coli 0127:B8 (LPS; Sigma, St. Louis, Mo.) was dissolved in water by vortexing at a concentration of 2 mg/ml. […] This dose was determined in pilot studies to result in occasional shivering, piloerection, and poor weight gain but was not associated with a significant increase in mortality over a 6-day period. […]

[2] = system: MPO; experiment: MPO activity in distal small intestine and lung of rat pups
Source text: (§4) This example describes the materials and methods necessary to show the effect of LGG on formula-fed neonatal rat pups. In two separate experiments, ten Sprague-Dawley (Taconic, Germantown, N.Y.) infant rats were randomly assigned to two gastrostomy feeding groups with five rats per group. Gastrostomy feeding, using the rat infant “pup-in-the-cup” model, began on day 7 of life of the rat pups. The gastrostomy feeding tubes were constructed from 14-cm sections of polyethylene tubing that were inserted into the stomach of the pups. This is a commonly used model in studies of developmental nutrition when it is important to manipulate nutritional composition in the absence of maternal feedings. […]
as §2, §3
This example illustrates the effect of LGG on MPO levels. […] MPO concentration of the supernatant was measured by the H2O2-dependent oxidation of tetramethylbenzidine. […]

[3] = system: IL-6; experiment: Multiplex bead cytokine assay, IL-6
Source text: as §4, §2, §3
(§5) To further investigate the effects of LPS and LGG on cytokines, 14 cytokines/chemokines from lung, liver, plasma and distal small intestine were analyzed. […]

[4] = system: IL-18; experiment: Multiplex bead cytokine assay, IL-18
Source text: as §4, §2, §3, §5

[5] = system: IL-10; experiment: Multiplex bead cytokine assay, IL-10
Source text: as §4, §2, §3, §5

[6] = system: TNF-α; experiment: TNF-α production by ELISA in plasma and lung of rat pups
Source text: as §4, §2, §3
To further investigate the effects of the diets on TNF-α, TNF-α production was evaluated by ELISA in the plasma and lung. […]

[7] = system: cytokine/chemokine levels; experiment: Multiplex bead cytokine assay, liver cytokine/chemokine levels
Source text: as §4, §2, §3, §5

[8] = system: GRO/KC (rat CINC-1); experiment: Multiplex bead cytokine assay, GRO/KC
Source text: as §4, §2, §3, §5

[9] = system: CINC-1; experiment: CINC-1 peptide production by ELISA in rat pup tissues
Source text: This example describes the materials and methods necessary to show the effect of LGG on formula-fed neonatal rat pups. In two separate experiments, ten Sprague-Dawley (Taconic, Germantown, N.Y.) infant rats were randomly assigned to two gastrostomy feeding groups with five rats per group. Gastrostomy feeding, using the rat infant “pup-in-the-cup” model, began on day 7 of life of the rat pups. The gastrostomy feeding tubes were constructed from 14-cm sections of polyethylene tubing that were inserted into the stomach of the pups. This is a commonly used model in studies of developmental nutrition when it is important to manipulate nutritional composition in the absence of maternal feedings. The gastrostomy placement was done under isoflurane anesthesia. Timer-controlled syringe pumps were connected to the feeding tubes and were set to feed the rats for the first 20 minutes of every hour at a weight-dependent flow rate. Five mother-reared rats of the same age were used as reference controls.
During a 2-day acclimation period, the gastrostomy-fed rat pups were fed with rat milk substitute (RMS). The protein component of the RMS was between 30 and 40 g/kg/day, which is similar to that of mother's milk and is required for normal growth. One of the RMS fed groups was also given a supplement of 1×10^8 cfu/L/kg/day LGG. The other group was fed RMS alone, without LGG supplementation. All of the gastrostomy-fed groups received the same quantity of fat and carbohydrates.
Lipopolysaccharide (LPS) from Escherichia coli 0127:B8 (LPS; Sigma, St. Louis, Mo.) was dissolved in water by vortexing at a concentration of 2 mg/ml. The gastrostomy-fed rats were given between 0.25 and 0.5 mg/kg/day of LPS via the gastrostomy tube starting 2 days after the initiation of artificial feeding. The pups were given LPS supplementation for 6 days. This dose was determined in pilot studies to result in occasional shivering, piloerection, and poor weight gain but was not associated with a significant increase in mortality over a 6-day period.
At the end of the 6-day treatment period, the rat pups were euthanized with an overdose of pentobarbital sodium. The small intestine was removed and separated into three parts: the ileum, jejunum, and duodenum, stored at −80° C. for enzyme assays and ELISA, or fixed in 10% neutral buffered formalin for intestinal morphology. Lung, liver and plasma were stored at −80° C. for enzyme assays and ELISA.
This example illustrates the effect of LGG on CINC-1. Small intestine and plasma CINC-1 levels were determined by TiterZyme Enzyme Immunometric Assay kits for rat growth-related oncogene/CINC-1 (Assay Designs, Ann Arbor, Mich.). Absorbance was determined at 450 nm, and concentration was calculated using the equation derived from a linear standard curve.
To further investigate the effects of the diets on CINC-1 peptide, CINC-1 production was evaluated by ELISA in the small intestine, liver, lung and plasma. In an initial experiment, LPS administration to rat pups caused an approximate 4-fold elevation in CINC-1 over non-LPS treated pups fed by gastrostomy (data not shown). […] In the liver and plasma, LGG supplementation reduced CINC-1 levels to a level which was very similar to that of mother's milk-fed rat pups.

[10] = system: IL-1β; experiment: Multiplex bead cytokine assay, IL-1β
Source text: as §4, §2, §3, §5

[11] = Growth (body weight) of gastrostomy-fed, LPS-treated rat pups; settings: LGG 1×10^8 cfu/L/kg/day
Source text: as §1, §2, §3

[12] = system: TNF-α; experiment: Multiplex bead cytokine assay, TNF-α
Source text: as §4, §2, §3, §5

In the case of Lactobacillus rhamnosus GG [LGG], the “ileum histological features (metaplasia, lymphoplasmacytic infiltrate, thinning of muscularis mucosa, regenerative crypt changes)” value ([1]; LPS plus LGG group vs LPS group) is reported as “attenuated”, the “physical damage in the intestinal mucosa” value ([1]; LPS/LGG group vs mother's milk-fed rat pups) is reported as “reduced to a level similar to that of mother's milk-fed rat pups” and the “LPS induced elevation of MPO, distal small intestine” value ([2]; distal small intestine) is reported as “significantly blunted”. For the same substance, the “LPS induced elevation of MPO, lung” value ([2]; lung) was “significantly blunted”, the “LPS induced elevation of IL-6, lung” value ([3]; lung) was “significantly blunted” and the “LPS induced elevation of IL-6, plasma” value ([3]; plasma) was “significantly blunted”. The “LPS induced elevation of IL-18, lung” value ([4]; lung) was “significantly blunted”, the “LPS induced elevation of IL-18, plasma” value ([4]; plasma) was “significantly blunted” and the “LPS induced elevation of IL-10, lung” value [5] was “significantly blunted”. The “LPS induced elevation of TNF-α, lung” value ([6]; lung) was “significantly blunted”, the “LPS induced elevation of TNF-α, plasma” value ([6]; plasma) was “significantly blunted” and the “LPS induced increase of cytokine/chemokine levels in the liver” value [7] was “blunted”. For the same substance, the “LPS induced elevation of GRO/KC (rat CINC-1), lung” value ([8]; lung) was “significantly blunted”, the “LPS induced elevation of GRO/KC (rat CINC-1), plasma” value ([8]; plasma) was “significantly blunted” and the “liver CINC-1 concentration” value ([9]; liver, LPS/LGG vs LPS) was “significantly attenuated”. For the same substance, the “lung CINC-1” value ([9]; lung, LPS/LGG vs LPS) was “significantly attenuated”, the “plasma CINC-1 concentration” value ([9]; plasma, LPS/LGG vs LPS) was “significantly attenuated” and the “intestinal CINC-1 levels” value ([9]; small intestine, LPS vs LPS/LGG vs mother-fed) was “did not differ significantly among the 3 groups”. The “LPS induced elevation of IL-1β, lung” value ([10]; lung) was “significantly blunted”, the “LPS induced elevation of IL-1β, plasma” value ([10]; plasma) was “significantly blunted” and the weight gain [11] was “did not improve weight gain”. The “LPS induced elevation of TNF-α, lung” value [12] was “significantly blunted”.
For “Lipopolysaccharide (LPS) from Escherichia coli 0127:B8 [reference compound]”, the “elevation in CINC-1” value ([9]; initial experiment, over non-LPS treated pups fed by gastrostomy (data not shown)) was “approximately 4 fold”, the “liver CINC-1 concentration, fold as high” value ([9]; liver, LPS treated group that did not receive LGG) was about 2 fold and the “lung CINC-1 elevation” value ([9]; lung, LPS treatment compared to mother-fed controls) was “approximately 4 fold”. The “plasma CINC-1 concentration, fold as high” value ([9]; plasma, LPS treated group that did not receive LGG) was about 2 fold.
